From BindingDB's records for doi:10.1111/j.1747-0285.2011.01215.x (Yeditepe University, 2011) come the findings set out here.

The target in this test is Sigma non-opioid intracellular receptor 1 (Cavia porcellus, UniProt Q60492). The test can be described thus: Sigma 1 Assay. The note with it: pH 7.4; 37 °C. As to the method:
The test was performed with the radioligand [3H]-(+)-pentazocine (42.5 Ci/mmol) from Perkin Elmer.

pKi: −log10 of the molar value.

Sigma non-opioid intracellular receptor 1, sequence (Q60492 whole entry): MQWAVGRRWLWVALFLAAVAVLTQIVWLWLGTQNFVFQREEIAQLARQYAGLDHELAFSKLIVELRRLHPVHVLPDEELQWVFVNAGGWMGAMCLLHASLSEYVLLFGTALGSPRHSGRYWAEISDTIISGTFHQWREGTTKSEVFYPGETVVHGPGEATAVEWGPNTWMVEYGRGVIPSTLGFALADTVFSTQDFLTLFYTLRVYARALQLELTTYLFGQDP

In the case of `Fc1ccc(N2CCN(CCCn3ccc4ccccc43)CC2)cc1` [1-{3-[4-(substitutedphenyl)piperazin1-yl]propyl}-1 H-indole, 4a], the negative-log Ki (pKi) is 6.34. Then `Fc1ccc(N2CCN(Cc3c[nH]c4ccccc34)CC2)cc1` [3-[[4-(4-fluorophenyl)piperazin-1-yl]methyl]-1H-indole], with 5.44.

With `Fc1ccc(F)c(CN2CCN(Cc3c[nH]c4ccccc34)CC2)c1` [3-{[4-(substitutedphenyl/benzyl)piperazin1-yl]methyl}-1 H-indole, 1b], the pKi is 6.67. `Fc1ccc(N2CCN(Cc3cn(CN4CCN(c5ccc(F)cc5)CC4)c4ccccc34)CC2)cc1` [1,3-di-{[4-(4-fluorophenyl)piperazin1-yl]methyl}-1 H-indole, 2a] gave a negative logarithm of the Ki (pKi) of 5.57.

On to `Clc1ccc(CN2CCN(Cc3c[nH]c4ccccc34)CC2)cc1Cl` [3-{[4-(substitutedphenyl/benzyl)piperazin1-yl]methyl}-1 H-indole, 1c], for which the pKi was 6.90. Then `Cc1cn(CN2CCN(c3ccc(F)cc3)CC2)c2ccccc12` [1-{[4-(substitutedphenyl/phenylethyl)piperazin1-yl]methyl}-3-methyl-1 H-indole, 3a], with 6.00; and `c1ccc(N2CCN(CCCn3ccc4ccccc43)CC2)cc1` [1-{3-[4-(substitutedphenyl)piperazin1-yl]propyl}-1 H-indole, 4c], with 5.83; and `Cc1cn(CN2CCN(CCc3ccccc3)CC2)c2ccccc12` [1-{[4-(substitutedphenyl/phenylethyl)piperazin1-yl]methyl}-3-methyl-1 H-indole, 3b], with 7.85.

`Fc1ccccc1N1CCN(CCCn2ccc3ccccc32)CC1` [1-{3-[4-(substitutedphenyl)piperazin1-yl]propyl}-1 H-indole, 4b]: the negative logarithm of the Ki (pKi) is 6.58.

The term pKi denotes the Ki on a negative log10 scale, so that one unit is a factor of ten. A lower pKi goes with a large Ki.
